Publication PMC3530535, “Crystal Structure of Proteus mirabilis Lipase, a Novel Lipase from the Proteus/Psychrophilic Subfamily of Lipase Family I.1” (PLoS ONE, 2012)

Biological target: T1, Proteus mirabilis lipase (PML) (Proteus mirabilis, UniProt B4EVM3)
T1 construct: gene PMI0999; N-terminal hexahistidine tag (pET28a, plasmid pTK05), expressed in E. coli BL21Gold(DE3), Ni-NTA purified, tag removal not described
Experiment: X-ray crystal structure, […] A
Format: binding
Settings: covalent; diethyl adduct on Ser79 O-gamma; treated with 2 mM paraoxon, 0.6% Triton X100, 18 h, 25 °C, pH 7.5

T1 sequence (B4EVM3 entry or part of it): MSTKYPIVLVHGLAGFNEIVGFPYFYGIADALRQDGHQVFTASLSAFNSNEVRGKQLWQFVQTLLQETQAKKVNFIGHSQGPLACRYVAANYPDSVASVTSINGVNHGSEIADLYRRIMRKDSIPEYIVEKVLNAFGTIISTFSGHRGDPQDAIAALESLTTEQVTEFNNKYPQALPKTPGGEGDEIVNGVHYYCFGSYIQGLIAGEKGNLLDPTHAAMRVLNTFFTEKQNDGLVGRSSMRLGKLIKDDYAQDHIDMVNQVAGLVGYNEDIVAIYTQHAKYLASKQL

CCOP(=O)(OCC)Oc1ccc([N+](=O)[O-])cc1 [DEP, paraoxon]
X-ray crystal structure, 2.2 A: the small phosphonate inhibitor is covalently bound to the Oγ of S79
